From a melting point compilation (Tetko et al.)

Conditions: a range is the spread between reports

SMILES | melting point [°C]
Oc1ccc(Cl)c(Cl)c1 | 66 to 68
Sc1ncc[nH]1 | 225 to 230
COc1ccc(C)cc1OC | 24 to 27
N#Cc1c[nH]c2ccccc12 | 180
Cc1ccc[nH]c1=O | 138 to 142
CC1(C)CC=CCC1 | -74.4 to -74
COc1cc(C)ccc1O | 5.5 to 6
OCCCCCCCCCCO | 72 to 74
C=C(C)C(=O)OC | -48 to -47.5
Clc1cc(Cl)cc(I)c1 | 56 to 57
CC(=O)CCC(C)=O | -7 to -5.5
Cc1cc(O)ccc1Br | 59 to 64
OCC(Cl)(Cl)Cl | 18 to 19
Cc1ccc(N)nc1 | 76 to 76.5
CCC#CCCCC | -104
C[N+](=O)[O-] | -29 to -28.5
COC(=O)c1ccc(C#N)cc1 | 62 to 67
c1csc(-c2ccc(-c3cccs3)s2)c1 | 92 to 93.5
c1ccc(-c2ccccc2-c2ccccc2)cc1 | 56 to 57
OC1C2CCC(C2)C1O (stereo unspecified) | 139 to 141
C=C(C)CCCCCC | -78 to -77.8
CCCCOC | -116 to -115
CCCC(C)(C)C(C)C | -117
O=C(O)CCCCCCC(=O)O | 143 to 144
COc1ccc(CC#N)cc1OC | 62.8 to 64

SMILES | melting point [°C]
N[C@@H](Cc1c[nH]cn1)C(=O)O | 282 to 287
CC(C)(C)C(=O)CC#N | 68 to 71
O=[N+]([O-])c1cccc2c([N+](=O)[O-])cccc12 | 216 to 219
COc1ccc(CC(=O)O)cc1OC | 97 to 98
Brc1cccnc1 | -27.3 to -27
CCCCS | -116
Cc1ccc2[nH]cnc2c1 | 112 to 116
Oc1cc(Cl)c(Cl)cc1Cl | 65.5 to 69
NNC(=O)NN | 154 to 158
CCCCCCCCCCCCCCCCCCCC | 36 to 37
c1ccc(Cn2ccnc2)cc1 | 69 to 71
N#CCc1cccc(Br)c1 | 27 to 28
CC(=O)OC(OC(C)=O)c1ccc([N+](=O)[O-])o1 | 90 to 91
COP(N)(=O)SC (stereo unspecified) | 45 to 46
Cc1cccc(O)c1 | 11 to 12
CNC(=O)CSP(=S)(OC)OC | 51.5 to 52
N#Cc1ccccc1C=O | 104 to 108
CC(C)Cl | -118 to -117
CC1(C)C(=O)N(Cl)C(=O)N1Cl | 132 to 135
BrCc1ccc2ccccc2c1 | 53 to 56
CCCCC | -130
CCCCCCCCCCCCCCCCCCCCC | 39 to 41
Oc1ccc(-c2ccccc2)cc1 | 165 to 167
CCCCCCCCCCCCCCCCCCCCCCCCCCCCCCCC | 69.7 to 70
Nc1ccc([N+](=O)[O-])cc1[N+](=O)[O-] | 176 to 180

SMILES | melting point [°C]
CC1CNCC(C)O1 (stereo unspecified) | -88 to -85
Cc1cccc([N+](=O)[O-])c1 | 15.5 to 16
ClC(Cl)=C(Cl)C(Cl)(Cl)Cl | -73 to -72.9
CCCN(CC1CC1)c1c([N+](=O)[O-])cc(C(F)(F)F)cc1[N+](=O)[O-] | 32 to 32.5
N#CCCCCCCC#N | -3.5 to -3
CC(C)C#N | -72 to -71.5
N#CCC(N)=O | 120 to 122
Cc1cc(C)cc(C)c1 | -45 to -44.7
OCc1cccc(CO)c1 | 57 to 58
S=C=Nc1cccc2ccccc12 | 56 to 58
COc1cc(OC)cc(OC)c1 | 52 to 54.5
N#CCC#N | 32 to 34
COC | -142 to -138
CCCC(C)=C(C)C | -115
CC(F)(F)Cl | -131
O=C(O)c1cc(Br)ccc1Br | 155 to 157
O=C(O)CCC(=O)O | 185 to 188
C/C=C\CC | -151
N#CCc1ccc(Br)cc1 | 47 to 48
O=C(CCl)CCl | 44 to 45
CCc1cccc(CC)c1 | -84 to -83.9
Cc1ccc([N+](=O)[O-])c(O)c1 | 53 to 55
CC(Cl)Cl | -97 to -96.9
CCC(C)(C)CC | -135 to -134
C=C(C)C(C)CC (stereo unspecified) | -134

Other lines, results leading:

melting point [°C] | SMILES
112 to 113 | CN1CCC(=C2c3ccccc3C=Cc3ccccc32)CC1
92 to 94 | O=S(=O)(c1ccccc1)c1ccc(Cl)cc1
53 to 56 | CC(=O)c1ccc2ccccc2c1
6 to 8.2 | C=C(c1ccccc1)c1ccccc1
30 to 31 | c1ccc2ocnc2c1
230 to 232 | O=C(O)c1cc([N+](=O)[O-])ccc1O
245 to 247 | O=Cc1ccc(C(=O)O)cc1
42 to 42.5 | O=C(OC(=O)c1ccccc1)c1ccccc1
21 to 22 | Clc1ccc(Cl)c(I)c1
84.5 to 88 | Cc1ccc(S(=O)(=O)NC2CCCCC2)cc1
80 to 84 | Oc1ccc(Oc2ccccc2)cc1
159 to 163 | Cc1ccc(C(N)=O)cc1
62 to 64 | OCc1ccccc1CO
82 to 84 | N#CCc1ccccc1[N+](=O)[O-]
163 to 166 | CC(=O)Nc1ccc(N)cc1
250 to 253 | Cc1cc(O)c(C(C)C)cc1C1(c2cc(C(C)C)c(O)cc2C)OC(=O)c2ccccc21
74 to 74.2 | Fc1ccc(-c2ccccc2)cc1
87 to 89 | CC(=O)Nc1ccccc1Cl
12 to 14 | Cc1nc2ccccc2s1
220 to 221 | O=C(O)c1ccc(C(F)(F)F)cc1
105 to 108 | O=Cc1ccc([N+](=O)[O-])cc1
263 to 268 | Nc1ccc(N)c2c1C(=O)c1ccccc1C2=O
200 to 202 | NC(=O)c1ccc([N+](=O)[O-])cc1

melting point [°C] | SMILES
231 | c1ccc(CNc2ncnc3nc[nH]c23)cc1
60 to 61 | COC(=O)c1ccc(C=O)cc1
95 | Cc1c[nH]c2ccccc12
88 to 92 | CCOC(=O)c1ccc(N)cc1
77 to 78 | O=Cc1ccc(I)cc1
230 | O=c1ccc2ccc(O)cc2o1
12 to 15.5 | O=C(Cl)c1ccccc1C(=O)Cl
19 to 20 | SCc1ccc(Cl)cc1
80 to 84 | O=C(O)Cc1ccc(C(F)(F)F)cc1
88.5 to 89 | CCOc1ccc(CC(=O)O)cc1
198 to 199 | NC(=O)c1c(Cl)cccc1Cl
161 to 164 | CC(=O)Oc1ccc(-c2ccc(OC(C)=O)cc2)cc1
115 to 118 | O=C(c1ccccc1)c1ccc(C(F)(F)F)cc1
141 to 142 | COC(=O)c1ccc(C(=O)OC)cc1
56 to 58 | O=Cc1cc(Cl)ccc1Cl
-100 to -99 | CCCc1ccccc1
-95 to -94.9 | CCc1ccccc1
108 to 109 | c1ccc2nc3ccccc3cc2c1
138 to 140 | Cc1ccc2cccc([N+](=O)[O-])c2n1
61 to 62 | O=Cc1ccc2ccccc2c1
88 to 91 | c1ccc(-c2ccc(-c3ccccc3)o2)cc1
95 to 96 | C=Cc1cccc(C(=O)O)c1
5 to 7.1 | Brc1ccccc1Br
